Data as given in patent publication US10959430B2, “Compositions and methods for repelling coleopterans” (ISCA TECHNOLOGIES, INC., priority 2015, dated 2021).

Legend:
[1] = tested on: CBB (coffee berry borer, Hypothenemus hampei); experiment: Dislodging of CBB from coffee berries in a sealed petri dish; type: in vivo; settings: both male and female CBBs
Excerpt: Our testing involved application of approximately 0.2 g of SPLAT Verb in approximately a 6-inch petri dish. (SPLAT Verb is loaded with 10% verbenone by weight.) This area would correspond to 0.0000045ac of land; therefore, our field application rate would be approximately 44 kg of SPLAT Verb (4,400 g of verbenone) per acre. Coffee berries, commonly used to rear CBB, were placed in the petri dish. The 0.2 g of SPLAT Verb was introduced into the sealed petri dish. We then went on to measure the times when CBB dislodged or exited the berry. The number dislodged is a summation of the total dislodged at that point in time. Our data (as shown in Table 3) verifies that CBB exited their preferred host and, after dislodging, maintained high activity levels without re-entering the berries.

CBB = settings: dosage and verbenone type not given in the study; cited from earlier work

SMILES | effect of exposure on male and female CBBs in the coffee berry [1] | response of CBB to path containing verbenone (CBB)
CC1=CC(=O)[C@H]2C[C@@H]1C2(C)C [(1S)-(−)-Verbenone] | dislodge from the coffee berry | –
CC1=CC(=O)[C@@H]2C[C@H]1C2(C)C [verbenone] | – | unattractive
